Reference: patent US10604524B2, “Pyrropyrimidine compounds as MNKs inhibitors” (LIFEARC, priority 2015, dated 2020)

Tests used:
[1] = target: Full-length human MNK1 (Homo sapiens, UniProt Q9BUB5, T385D); experiment: MNK1 biochemical IC50 assay (Caliper mobility shift)
[2] = system: phosphorylation of eIF4E at ser209 in MV4.11 cell line; experiment: cells; format: cell-based; settings: Homo sapiens; MV4.11 cells, 1.5 hr compound incubation, average of at least 2 independent experiments; read-out: plc50 elF4E (converted)
Experimental: MNK activity in cells was measured by monitoring the phosphorylation of eIF4E at ser209, the known endogenous substrate of MNK1/2, in cell lysates. […] The assay detection is based on the formation of sandwich antibody complexes coupled to donor and acceptor beads. Excitation at 680 nm causes the transfer of a singlet oxygen species between donor and acceptor beads when they are in close proximity by binding to the analyte […], which results in the emission of light at 520-620 nm.
Cells were then lysed and the Aphascreen Surefire protocol followed according to manufacturer's recommendations. 8 ul Acceptor beads (1:50 dilution in kit activation buffer) was added to lysate, shaken 150 rpm for 2 min and incubated for 1.5 hr at room temperature. 3 ul Donor beads (1:20 dilution in kit dilution buffer) were then added, shaken 150 rpm for 2 min and incubated for a further 1.5 hr at room temperature after which the plates were read on Pherastar FS using Alphascreen optic module.
Data were normalised relative to untreated DMSO only controls and curves repeated in duplicate within experiments. Data reported are averages of at least 2 independent experiments.

[3] = target: Full-length human MNK2 (Homo sapiens, UniProt Q9HBH9, T379D); experiment: MNK2 biochemical IC50 assay (Caliper mobility shift)
Full-length human MNK2, sequence (Q9HBH9 whole entry T379D): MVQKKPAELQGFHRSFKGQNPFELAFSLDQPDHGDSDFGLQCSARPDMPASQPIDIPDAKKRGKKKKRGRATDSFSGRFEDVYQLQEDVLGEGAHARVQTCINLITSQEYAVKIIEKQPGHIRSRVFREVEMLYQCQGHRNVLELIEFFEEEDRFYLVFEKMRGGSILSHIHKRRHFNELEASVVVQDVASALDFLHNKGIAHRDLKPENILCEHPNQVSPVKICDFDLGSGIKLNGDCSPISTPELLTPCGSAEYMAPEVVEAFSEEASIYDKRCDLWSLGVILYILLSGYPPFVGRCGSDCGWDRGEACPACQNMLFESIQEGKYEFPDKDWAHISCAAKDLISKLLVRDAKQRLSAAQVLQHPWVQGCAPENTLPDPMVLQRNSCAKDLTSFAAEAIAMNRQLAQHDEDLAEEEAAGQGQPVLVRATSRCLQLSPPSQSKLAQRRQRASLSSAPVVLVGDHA

Full-length human MNK1, sequence (Q9BUB5 1-424 isoform Q9BUB5-2 T344D): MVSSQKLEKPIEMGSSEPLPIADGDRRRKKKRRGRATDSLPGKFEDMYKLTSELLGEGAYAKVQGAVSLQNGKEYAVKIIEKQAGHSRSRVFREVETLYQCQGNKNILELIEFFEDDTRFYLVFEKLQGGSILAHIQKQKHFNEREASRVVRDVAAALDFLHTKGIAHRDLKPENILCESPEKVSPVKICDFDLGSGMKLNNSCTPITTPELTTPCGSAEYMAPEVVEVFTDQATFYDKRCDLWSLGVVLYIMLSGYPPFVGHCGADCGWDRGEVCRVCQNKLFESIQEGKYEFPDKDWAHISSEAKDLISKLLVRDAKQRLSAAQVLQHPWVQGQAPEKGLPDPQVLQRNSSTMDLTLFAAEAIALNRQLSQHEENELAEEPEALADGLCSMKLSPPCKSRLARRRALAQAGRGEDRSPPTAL

SMILES | IC50 [1] [nM] | IC50 [2] [nM] | IC50 [3] [nM]
CC(C)Oc1ncccc1Nc1ncnc2ccn(C)c12 [Example 29, N-(2-isopropoxy-3-pyridyl)-5-methyl-pyrrolo[3,2-d]pyrimidin-4-amine] | 251 | 50.1 | 100
Fc1ccc2c(c1)CCN2c1ncnc2cc[nH]c12 [Example 46, 4-(5-Fluoroindolin-1-yl)-5H-pyrrolo[3,2-d]pyrimidine] | 39.8 | – | 31.6
CCCn1ccc2ncnc(Nc3ccc(F)cc3OC(C)C)c21 [Example 2, N-(4-fluoro-2-isopropoxy-phenyl)-5-propyl-pyrrolo[3,2-d]pyrimidin-4-amine] | 501 | 158 | 398
Cn1ccc2ncnc(Nc3ccc(F)cc3OC3CCOCC3)c21 [Example 13, N-(4-fluoro-2-tetrahydropyran-4-yloxy-phenyl)-5-methyl-pyrrolo[3,2-d]pyrimidin-4-amine] | 316 | 63.1 | 158
C[C@H](CF)Oc1cc(F)ccc1Nc1ncnc2ccn(C)c12 [Example 23, N-[4-fluoro-2-[(1R)-2-fluoro-1-methyl-ethoxy]phenyl]-5-methyl-pyrrolo[3,2-d]pyrimidin-4-amine] | 126 | 15.8 | 39.8
CC(CF)Oc1cc(F)ccc1Nc1ncnc2ccn(C)c12 (racemic) [Example 26, Racemic-N-[4-fluoro-2-(2-fluoro-1-methyl-ethoxy)phenyl]-5-methyl-pyrrolo[3,2-d]pyrimidin-4-amine] | 79.4 | 15.8 | 31.6
Cn1ccc2ncnc(Nc3ccc(F)cc3O[C@@H]3CCOC3)c21 [Example 16, N-[4-fluoro-2-[(3R)-tetrahydrofuran-3-yl]oxy-phenyl]-5-methyl-pyrrolo[3,2-d]pyrimidin-4-amine] | 251 | 79.4 | 126
CC(C)Oc1cc(F)ccc1Nc1ncnc2cc[nH]c12 [Example 45, N-(4-fluoro-2-isopropoxy-phenyl)-5H-pyrrolo[3,2-d]pyrimidin-4-amine] | 126 | 501 | 79.4
Cn1ccc2ncnc(Nc3ccc(F)cc3O[C@@H]3CCCOC3)c21 [Example 18, N-[4-fluoro-2-[(3R)-tetrahydropyran-3-yl]oxy-phenyl]-5-methyl-pyrrolo[3,2-d]pyrimidin-4-amine] | 63.1 | – | 31.6
CCn1ccc2ncnc(Nc3ccc(F)cc3OC(C)C)c21 [Example 1, 5-Ethyl-N-(4-fluoro-2-isopropoxy-phenyl)pyrrolo[3,2-d]pyrimidin-4-amine] | 200 | 50.1 | 126
CC(C)Oc1cc(F)ccc1Nc1ncnc2cc(C(=O)NCCCN(C)C)[nH]c12 [Example 44, N-[3-(dimethylamino)propyl]-4-(4-fluoro-2-isopropoxy-anilino)-5H-pyrrolo[3,2-d]pyrimidine-6-carboxamide] | 79.4 | 63.1 | 63.1
Cn1ccc2ncnc(Nc3ccc(F)cc3O[C@H]3CCCC[C@@H]3O)c21 [Example 36, (1S,2S)-2-[5-fluoro-2-[(5-methylpyrrolo[3,2-d]pyrimidin-4-yl)amino]phenoxy]cyclohexanol] | 794 | 39.8 | 251
CC(C)Oc1cc(F)ccc1Nc1ncnc2cc(C(=O)NCC3CCNCC3)n(C)c12 [Example 41, 4-{[4-Fluoro-2-(propan-2-yloxy)phonyl]amino}-5-methyl-N-(piperidin-4-ylmethyl)-5H-pyrrolo[3,2-d]pyrimidine-6-carboxamide] | 39.8 | – | 39.8
Cn1ccc2ncnc(Nc3ccc(F)cc3O[C@H]3CC[C@H](O)CC3)c21 [Example 12, 4-[5-fluoro-2-[(5-methylpyrrolo[3,2-d]pyrimidin-4-yl)amino]phenoxy]cyclohexanol] | 200 | 15.8 | 79.4
Cn1ccc2ncnc(Nc3ccc(F)cc3OC3CCC3)c21 [Example 17, N-[2-(cyclobutoxy)-4-fluoro-phenyl]-5-methyl-pyrrolo[3,2-d]pyrimidin-4-amine] | 200 | 31.6 | 79.4
CC(C)Oc1cc(C#N)ccc1Nc1ncnc2ccn(C)c12 [Example 7, 3-Isopropoxy-4-[(5-methylpyrrolo[3,2-d]pyrimidin-4-yl)amino]benzonitrile] | 50.1 | 31.6 | 25.1
CC(C)Oc1cc(F)ccc1Nc1ncnc2ccn(CCO)c12 [Example 4, 2-[4-(4-Fluoro-2-isopropoxy-anilino)pyrrolo[3,2-d]pyrimidin-5-yl]ethanol] | 2000 | 251 | 1260

SMILES | IC50 [1] [nM] | IC50 [2] [nM] | IC50 [3] [nM]
Cn1ccc2ncnc(Nc3ccc(F)cc3O[C@H]3CCCOC3)c21 [Example 19, N-[4-fluoro-2-[(3S)-tetrahydropyran-3-yl]oxy-phenyl]-5-methyl-pyrrolo[3,2-d]pyrimidin-4-amine] | 501 | – | 126
Cn1ccc2ncnc(Nc3ccc(F)cc3OCC(F)F)c21 [Example 31, N-[2-(2,2-difluoroethoxy)-4-fluoro-phenyl]-5-methyl-pyrrolo[3,2-d]pyrimidin-4-amine] | 316 | 50.1 | 158
CN(C)CCCNC(=O)c1cc2ncnc(N3CCc4cc(F)ccc43)c2[nH]1 [Example 39, N-[3-(dimethylamino)propyl]-4-(5-fluoroindolin-1-yl)-5H-pyrrolo[3,2-d]pyrimidine-6-carboxamide] | 12.6 | 25.1 | 12.6
Cn1ccc2ncnc(Nc3ccc4[nH]ncc4c3)c21 [Example 14, N-(1H-indazol-5-yl)-5-methyl-pyrrolo[3,2-d]pyrimidin-4-amine] | 251 | 398 | 398
CCOc1cc(F)ccc1Nc1ncnc2ccn(C)c12 [Example 30, N-(2-ethoxy-4-fluoro-phenyl)-5-methyl-pyrrolo[3,2-d]pyrimidin-4-amine] | 200 | 63.1 | 126
COc1ncccc1Nc1ncnc2ccn(C)c12 [Example 35, N-(2-methoxy-3-pyridyl)-5-methyl-pyrrolo[3,2-d]pyrimidin-4-amine] | 1580 | 1000 | 1260
CC(C)Oc1ccccc1Nc1ncnc2ccn(C)c12 [Example 28, N-(2-isopropoxyphenyl)-5-methyl-pyrrolo[3,2-d]pyrimidin-4-amine] | 398 | 39.8 | 158
CC(C)Oc1cc(F)ccc1Nc1ncnc2ccn(C)c12 [Example 27, N-(4-fluoro-2-isopropoxy-phenyl)-5-methyl-pyrrolo[3,2-d]pyrimidin-4-amine] | 126 | 20 | 50.1
CC(C)Oc1c(Nc2ncnc3ccn(C)c23)ccc(F)c1F [Example 32, N-(3,4-difluoro-2-isopropoxy-phenyl)-5-methyl-pyrrolo[3,2-d]pyrimidin-4-amine] | 2000 | 794 | 1000
CC(C)Oc1nc(Cl)ccc1Nc1ncnc2ccn(C)c12 [Example 6, N-(6-chloro-2-isopropoxy-3-pyridyl)-5-methyl-pyrrolo[3,2-d]pyrimidin-4-amine] | 251 | 63.1 | 63.1
CC(C)Oc1cc(F)ccc1Nc1ncnc2cc(C(=O)NCCN3CCNCC3)n(C)c12 [Example 42, 4-{[4-Fluoro-2-(propan-2-yloxy)phenyl]amino}-5-methyl-N-[2-(piperazin-1-yl)ethyl]-5H-pyrrolo[3,2-d]pyrimidine-6-carboxamide] | 50.1 | 100 | 50.1
CO[C@@H]1CCCC[C@H]1Oc1cc(F)ccc1Nc1ncnc2ccn(C)c12 [Example 38, N-[4-fluoro-2-[(1R,2R)-2-methoxycyclohexoxy]phenyl]-5-methyl-pyrrolo[3,2-d]pyrimidin-4-amine] | 2000 | 39.8 | 316
CC(C)Oc1cc(F)ccc1Nc1ncnc2c(Cl)c(C(=O)NCCCN(C)C)n(C)c12 [Example 43, 7-Chloro-N-[3-(dimethylamino)propyl]-4-{[4-fluoro-2-(propan-2-yloxy)phenyl]amino}-5-methyl-5H-pyrrolo[3,2-d]pyrimidine-6-carboxamide] | 1260 | 794 | 1000
CC(C)Oc1c(F)cccc1Nc1ncnc2ccn(C)c12 [Example 33, N-(3-fluoro-2-isopropoxy-phenyl)-5-methyl-pyrrolo[3,2-d]pyrimidin-4-amine] | 100 | 25.1 | 50.1
Cn1ccc2ncnc(Nc3ccc(F)cc3OC3CCCC3)c21 [Example 25, N-[2-(cyclopentyloxy)-4-fluorophenyl]-5-methyl-5H-pyrrolo[3,2-d]pyrimidin-4-amine] | 126 | – | 31.6
Cn1ccc2ncnc(Nc3ccc(F)cc3OC(CF)CF)c21 [Example 11, N-[4-fluoro-2-[2-fluoro-1-(fluoromethyl)ethoxy]phenyl]-5-methyl-pyrrolo[3,2-d]pyrimidin-4-amine] | 158 | – | 50.1
